# Reference: patent US8022053B2, “Oral solid dosage forms containing a low dose of estradiol” (Bayer Schering Pharma Aktiengesellschaft, priority 2004, dated 2011)
# Marks after values point to notes of the source that are not given here.
# How the values were obtained:
# [1] = In vitro dissolution of micronised estradiol and estradiol/polyvinylpyrrolidone powder mixtures (USP apparatus 2, paddle); type: physicochemical; settings: 900 ml purified water, 37° C., 50 rpm, powder corresponding to 100 μg estradiol hemihydrate
# Description: The dissolution characteristics of micronised estradiol and mixtures of micronised estradiol and polyvinylpyrrolidone, respectively, were investigated in an in vitro dissolution test system. The dissolution tester was a USP apparatus 2 (paddle system) (See <711> of USP 27) using 900 ml of purified water temperated at 37° C. as the dissolution media and a rotation speed of 50 rpm. The estradiol and the mixtures in powdery form were placed into the dissolution vessels in an amount corresponding to 100 μg of micronised estradiol hemihydrate.
# [2] = Bioavailability study, serum levels of estradiol after a single oral tablet; type: in vivo, healthy postmenopausal women; settings: fasted, for an extended period of time
# Description: A bioavailability study was conducted in order to determine the serum levels of estradiol after single administration of a tablet formulation identical to the one described in Example 2 containing 190 μg and 100 μg of micronised estradiol hemihydrate, respectively. The study design was open labelled, 3 periods, 3 treatments, cross-over design with a single administration of each treatment and two weeks' washout between each period. The study population were 24 healthy postmenopausal women, age 55-75. Fasted condition was held.
# The full-drawn line refers to the mean serum levels of estradiol achieved by administering a single dose of 190 μg to the study population, and the dotted line refers to the mean serum levels of estradiol achieved by administering a single dose of 100 μg to the study population. The mean serum level of endogenous estradiol was 3-3.5 pg/ml.
# [3] = daily oral administration of 1 to 3 mg of estradiol; cited from earlier work
SMILES,Amount of estradiol (μg) dissolved after 5 min ([1]; 5 min),Amount of estradiol (μg) dissolved after 10 min ([1]; 10 min),Amount of estradiol (μg) dissolved after 20 min ([1]; 20 min),Amount of estradiol (μg) dissolved after 30 min ([1]; 30 min),Amount of estradiol (μg) dissolved after 60 min ([1]; 60 min) [µg],Mean serum levels of estradiol ([2]; Example 2 tablet with 100 μg (printed 100 pg)) [pg/mL],Mean serum levels of estradiol ([2]; Example 2 tablet with 190 μg) [pg/mL],Bioavailability [3]
"C[C@]12CC[C@@H]3c4ccc(O)cc4CC[C@H]3[C@@H]1CC[C@@H]2O [micronised estradiol hemihydrate, estradiol hemihydrate]",<3* μg,<3* μg,<3* μg,<3* μg,<3,5 to 20,5 to 20,
C[C@]12CC[C@@H]3c4ccc(O)cc4CC[C@H]3[C@@H]1CC[C@@H]2O [estradiol],,,,,,,,3-5%
